# Measured values taken from patent US12479816B2, “20-HETE formation inhibitors” (UNIVERSITY OF PITTSBURGH—OF THE COMMONWEALTH SYSTEM OF …, priority 2019, dated 2025).
# System: 20-HETE formation (CYP4) in HLM
# Assay: Inhibition of 20-HETE formation at 250 or 500 nM in HLM microsomal incubations
# Type: biochemical, human
# Conditions: 500 nM compound; HLM 300 μg/ml, AA 100 μM, 20 min
# Method: (§1) To screen the inhibitory effects against 20-HETE formation, compounds were screened in HLM, RLM, RKM and rCYP4F2 microsomal incubations. Compounds dissolved in either 100% methanol or 100% DMSO to yield 10 mM stock solution. Microsomal incubations containing HLM, RLM, RKM (300 μg/ml) or rCYP4F2 (25 pmol/mL), AA (100 μM), NADPH (1 mM) treated with test compounds at various concentrations (500 nM or 250 nM) in a 1 ml total volume in incubation buffer (0.12 M potassium phosphate buffer containing 5 mM magnesium chloride). Reaction was started by adding NADPH to the incubates and was carried out at 37° C. in a shaking water bath for 20 min. Reaction was stopped by placing tubes on ice, followed by adding 125 μl 20-HETE-d6 as internal standard to each sample. Microsomal incubations were extracted with 3 ml ethyl ether twice, dried down under nitrogen gas and reconstituted in 125 μl 80:20 methanol:deionized H2O for analysis. 20-HETE formation was quantified using a validated UPLC-MS/MS assay and normalized by vehicle group. Each compound had three replications (n=3). Vehicle group was used as control to calculate percentage of 20-HETE formation rate. HET0016 (250 nM) was used as positive control. Incubates without NADPH group served as the negative control. An Acquity ultra performance LC autosampler (Waters, Milford, MA) was used to isolate 20-HETE on an UPLC BEH C18, 1.7 μm (2.1×100 mm) reversed-phase column (Waters, Milford, MA) protected by a guard column (2.1×5 mm; Waters, Milford, MA) of the same packing material. Column temperature was maintained at 55° C. Mobile phases consisted of 0.005% acetic acid, 5% acetonitrile in deionized water (A) and 0.005% acetic acid in acetonitrile (B). The flow rate for mobile phases is 0.5 ml/min. The initial mixture of mobile phase was 65:35 of A and B. Mobile phase B increased at 0.4 minutes after injection from 35% to 70% in a linear gradient over 4 minutes, and again increased to 95% over 0.5 minutes where it remained for 0.3 minutes. This was followed by a linear return to initial conditions over 0.1 minutes with a 1.5 minute pre-equilibration period prior to the next sample run. Total run time was 6.4 minutes for each injection. Injection volumes were 7.5 μl. Mass spectrometric analysis was carried out using a TSQ Quantum Ultra (Thermo Fisher Scientific, San Jose, CA) triple quadrupole mass spectrometer using heated electrospray ionization (HESI). Mass spectrometer was operated in negative selective reaction monitoring (SRM) mode with unit resolutions at both Q1 and Q3 set at 0.70 Da full width at half maximum. Scan time was set at 0.01 s and collision gas pressure was 1.3 mTorr. Quantitation of 20-HETE by SRM was performed by monitoring the m/z. Analytical data was acquired and analyzed using Xcaliber 3.0 data system (ThermoFinnigan, San Jose, CA).
row,Compound,HLM % inh. @ 500 nM
1,"c1cnc(SC2CCN(c3cn[nH]c3)CC2)nc1 [Compound 88, 2-((1-(1H-Pyrazol-4-yl)piperidin-4-yl)thio)pyrimidine]",39.8%
2,"Clc1cccc(CC2CCN(c3cn[nH]c3)CC2)c1 [Compound 90, 4-(3-chlorobenzyl)-1-(1H-pyrazol-4-yl)piperidine]",67%
3,"Fc1ccccc1SC1CCN(c2cn[nH]c2)CC1 [Compound 92, 4-((2-Fluorophenyl)thio)-1-(1H-pyrazol-4-yl)piperidine]",77.3%
4,"Cc1cccc(CC2CCN(c3cn[nH]c3)CC2)c1 [Compound 94, 4-(3-Methylbenzyl)-1-(1H-pyrazol-4-yl)piperidine]",61.3%
5,"FC(F)(F)c1cncc(C2CCN(c3cn[nH]c3)CC2)c1 [Compound 95, 4 3-(1-(1H-Pyrazol-4-yl)piperidin-4-yl)-5-(trifluoromethyl)pyridine]",42.8%
6,"COc1cc(CC2CCN(c3cn[nH]c3)CC2)ccn1 [Compound 98, 4-((1-(1H-Pyrazol-4-yl)piperidin-4-yl)methyl)-2-methoxypyridine]",37.20%

# Second part, the molecule after the results:
row,HLM % inh. @ 500 nM,Compound
1,81.3%,"O=S(=O)(c1ccc(C2CCN(c3cn[nH]c3)CC2)cc1)N1CCCC1 [Compound 85, 1-(1H-Pyrazol-4-yl)-4-(4-(pyrrolidin-1-ylsulfonyl)phenyl)piperidine]"
2,37.9%,"FC(F)(F)c1ccnc(C2CCN(c3cn[nH]c3)CC2)c1 [Compound 86, 2-(1-(1H-pyrazol-4-yl)piperidin-4-yl)-4-(trifluoromethyl)pyridine]"
3,15.6%,"FC(F)(F)c1ccnc(C2CCN(c3ccn[nH]3)CC2)c1 [Compound 87, 2-(1-(1H-Pyrazol-5-yl)piperidin-4-yl)-4-(trifluoromethyl)pyridine]"
4,40.4%,"Clc1cccc(CC2CCN(c3ccn[nH]3)CC2)c1 [Compound 91, 4-(3-Chlorobenzyl)-1-(1H-pyrazol-5-yl)piperidine]"
5,63.10%,"O=S(=O)(c1ccc(C2CCN(c3ccn[nH]3)CC2)cc1)N1CCCC1 [Compound 96, 1-(1H-Pyrazol-5-yl)-4-(4-(pyrrolidin-1-ylsulfonyl)phenyl)piperidine]"
6,35.30%,"Cc1cccc(CC2CCN(c3ccn[nH]3)CC2)c1 [Compound 97, 4-(3-Methylbenzyl)-1-(1H-pyrazol-5-yl)piperidine]"
7,17.70%,"COc1cc(CC2CCN(c3ccn[nH]3)CC2)ccn1 [Compound 99, 4-((1-(1H-Pyrazol-5-yl)piperidin-4-yl)methyl)-2-methoxypyridine]"
8,36.50%,"O=S1(=O)CCc2cc(C3CCN(c4cn[nH]c4)CC3)ccc21 [Compound 102, 5-(1-(1H-Pyrazol-4-yl)piperidin-4-yl)-2,3-dihydrobenzo[b]thiophene 1,1-dioxide]"

# Molecular target: T1, rCYP4F2 (Homo sapiens, UniProt P78329)
# T1 sequence (P78329 5-520): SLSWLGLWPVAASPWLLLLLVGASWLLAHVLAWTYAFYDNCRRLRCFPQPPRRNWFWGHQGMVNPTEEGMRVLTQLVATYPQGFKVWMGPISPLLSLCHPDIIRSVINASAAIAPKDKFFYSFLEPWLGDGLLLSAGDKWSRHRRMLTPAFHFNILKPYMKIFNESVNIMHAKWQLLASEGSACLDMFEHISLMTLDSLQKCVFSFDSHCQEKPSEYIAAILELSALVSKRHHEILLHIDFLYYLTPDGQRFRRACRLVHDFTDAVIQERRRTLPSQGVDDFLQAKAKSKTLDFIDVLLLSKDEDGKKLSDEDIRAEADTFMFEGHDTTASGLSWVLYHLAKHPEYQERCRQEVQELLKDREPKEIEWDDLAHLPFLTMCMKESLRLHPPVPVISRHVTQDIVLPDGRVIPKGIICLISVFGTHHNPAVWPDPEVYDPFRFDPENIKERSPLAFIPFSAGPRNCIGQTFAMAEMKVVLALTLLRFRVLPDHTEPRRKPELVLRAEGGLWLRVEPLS
# Assay: Inhibition of 20-HETE formation at 250 or 500 nM in rCYP4F2 incubations
# Type: biochemical
# Conditions: 500 nM compound; rCYP4F2 25 pmol/mL; read-out: rCYP4F2 % inh. @ 500 nM
# Method: as §1
row,Compound,inhibition at 0.5 µM
1,"c1cnc(SC2CCN(c3cn[nH]c3)CC2)nc1 [Compound 88, 2-((1-(1H-Pyrazol-4-yl)piperidin-4-yl)thio)pyrimidine]",26.4%
2,"Clc1cccc(CC2CCN(c3cn[nH]c3)CC2)c1 [Compound 90, 4-(3-chlorobenzyl)-1-(1H-pyrazol-4-yl)piperidine]",70.3%
3,"Fc1ccccc1SC1CCN(c2cn[nH]c2)CC1 [Compound 92, 4-((2-Fluorophenyl)thio)-1-(1H-pyrazol-4-yl)piperidine]",87.1%
4,"Cc1cccc(CC2CCN(c3cn[nH]c3)CC2)c1 [Compound 94, 4-(3-Methylbenzyl)-1-(1H-pyrazol-4-yl)piperidine]",60.3%
5,"FC(F)(F)c1cncc(C2CCN(c3cn[nH]c3)CC2)c1 [Compound 95, 4 3-(1-(1H-Pyrazol-4-yl)piperidin-4-yl)-5-(trifluoromethyl)pyridine]",26.3%
6,"COc1cc(CC2CCN(c3cn[nH]c3)CC2)ccn1 [Compound 98, 4-((1-(1H-Pyrazol-4-yl)piperidin-4-yl)methyl)-2-methoxypyridine]",25%

# The next lines start with the values.
row,inhibition at 0.5 µM,Compound
1,64%,"O=S(=O)(c1ccc(C2CCN(c3cn[nH]c3)CC2)cc1)N1CCCC1 [Compound 85, 1-(1H-Pyrazol-4-yl)-4-(4-(pyrrolidin-1-ylsulfonyl)phenyl)piperidine]"
2,49.4%,"FC(F)(F)c1ccnc(C2CCN(c3cn[nH]c3)CC2)c1 [Compound 86, 2-(1-(1H-pyrazol-4-yl)piperidin-4-yl)-4-(trifluoromethyl)pyridine]"
3,7.4%,"FC(F)(F)c1ccnc(C2CCN(c3ccn[nH]3)CC2)c1 [Compound 87, 2-(1-(1H-Pyrazol-5-yl)piperidin-4-yl)-4-(trifluoromethyl)pyridine]"
4,39.1%,"Clc1cccc(CC2CCN(c3ccn[nH]3)CC2)c1 [Compound 91, 4-(3-Chlorobenzyl)-1-(1H-pyrazol-5-yl)piperidine]"
5,16.4%,"O=S(=O)(c1ccc(C2CCN(c3ccn[nH]3)CC2)cc1)N1CCCC1 [Compound 96, 1-(1H-Pyrazol-5-yl)-4-(4-(pyrrolidin-1-ylsulfonyl)phenyl)piperidine]"
6,22.9%,"Cc1cccc(CC2CCN(c3ccn[nH]3)CC2)c1 [Compound 97, 4-(3-Methylbenzyl)-1-(1H-pyrazol-5-yl)piperidine]"
7,0%,"COc1cc(CC2CCN(c3ccn[nH]3)CC2)ccn1 [Compound 99, 4-((1-(1H-Pyrazol-5-yl)piperidin-4-yl)methyl)-2-methoxypyridine]"
8,27.9%,"O=S1(=O)CCc2cc(C3CCN(c4cn[nH]c4)CC3)ccc21 [Compound 102, 5-(1-(1H-Pyrazol-4-yl)piperidin-4-yl)-2,3-dihydrobenzo[b]thiophene 1,1-dioxide]"

# System: 20-HETE formation (CYP4) in RLM
# Assay: Inhibition of 20-HETE formation at 250 or 500 nM in RLM microsomal incubations
# Type: biochemical, rat
# Conditions: 500 nM compound; RLM 300 μg/ml
# Method: as §1
row,Compound,RLM % inh. @ 500 nM
1,"c1cnc(SC2CCN(c3cn[nH]c3)CC2)nc1 [Compound 88, 2-((1-(1H-Pyrazol-4-yl)piperidin-4-yl)thio)pyrimidine]",0.00%
2,"Clc1cccc(CC2CCN(c3cn[nH]c3)CC2)c1 [Compound 90, 4-(3-chlorobenzyl)-1-(1H-pyrazol-4-yl)piperidine]",20.80%
3,"Fc1ccccc1SC1CCN(c2cn[nH]c2)CC1 [Compound 92, 4-((2-Fluorophenyl)thio)-1-(1H-pyrazol-4-yl)piperidine]",0.00%
4,"Cc1cccc(CC2CCN(c3cn[nH]c3)CC2)c1 [Compound 94, 4-(3-Methylbenzyl)-1-(1H-pyrazol-4-yl)piperidine]",13.50%
5,"FC(F)(F)c1cncc(C2CCN(c3cn[nH]c3)CC2)c1 [Compound 95, 4 3-(1-(1H-Pyrazol-4-yl)piperidin-4-yl)-5-(trifluoromethyl)pyridine]",15.40%
6,"COc1cc(CC2CCN(c3cn[nH]c3)CC2)ccn1 [Compound 98, 4-((1-(1H-Pyrazol-4-yl)piperidin-4-yl)methyl)-2-methoxypyridine]",5.00%

# Second part, the molecule after the results:
row,RLM % inh. @ 500 nM,Compound
1,0.00%,"O=S(=O)(c1ccc(C2CCN(c3cn[nH]c3)CC2)cc1)N1CCCC1 [Compound 85, 1-(1H-Pyrazol-4-yl)-4-(4-(pyrrolidin-1-ylsulfonyl)phenyl)piperidine]"
2,18.10%,"FC(F)(F)c1ccnc(C2CCN(c3cn[nH]c3)CC2)c1 [Compound 86, 2-(1-(1H-pyrazol-4-yl)piperidin-4-yl)-4-(trifluoromethyl)pyridine]"
3,2.70%,"FC(F)(F)c1ccnc(C2CCN(c3ccn[nH]3)CC2)c1 [Compound 87, 2-(1-(1H-Pyrazol-5-yl)piperidin-4-yl)-4-(trifluoromethyl)pyridine]"
4,0.00%,"Clc1cccc(CC2CCN(c3ccn[nH]3)CC2)c1 [Compound 91, 4-(3-Chlorobenzyl)-1-(1H-pyrazol-5-yl)piperidine]"
5,0.00%,"O=S(=O)(c1ccc(C2CCN(c3ccn[nH]3)CC2)cc1)N1CCCC1 [Compound 96, 1-(1H-Pyrazol-5-yl)-4-(4-(pyrrolidin-1-ylsulfonyl)phenyl)piperidine]"
6,0.00%,"Cc1cccc(CC2CCN(c3ccn[nH]3)CC2)c1 [Compound 97, 4-(3-Methylbenzyl)-1-(1H-pyrazol-5-yl)piperidine]"
7,0.00%,"COc1cc(CC2CCN(c3ccn[nH]3)CC2)ccn1 [Compound 99, 4-((1-(1H-Pyrazol-5-yl)piperidin-4-yl)methyl)-2-methoxypyridine]"
8,0.00%,"O=S1(=O)CCc2cc(C3CCN(c4cn[nH]c4)CC3)ccc21 [Compound 102, 5-(1-(1H-Pyrazol-4-yl)piperidin-4-yl)-2,3-dihydrobenzo[b]thiophene 1,1-dioxide]"
